Reference: patent EP0406685A1, “Substituted polysaccharides, method for their preparation as well as their use in prophylaxis and treatment of viral diseases” (HOECHST AKTIENGESELLSCHAFT, priority 1989, dated 1991)

Test system: Friend Leukämie Virus
Experiment: FLV model of the mouse (Friend leukaemia virus infection, relative spleen weight)
Assay type: in vivo
Conditions: i.p.; for rel.Milzgewicht in % Körpergew.: start 2 days after infection, spleen 14 days after infection
Excerpt: Da für die HIV-Infektion des Menschen kein überzeugendes Infektionsmodell bei Labortieren existiert, muß bei der Prüfung von Chemotherapeutika auf Infektionen mit anderen Retroviren zurückgegriffen werden. Im vorliegenden Falle wurde die Infektion der Maus mit dem Friend Leukämie Virus gewählt.
Normale Labormäuse (NMRI = Naval Medical Research Institute) wurden durch intravenöse Injektion mit Friend-Virus enthaltendem Mäuseserum infiziert. Bei den unbehandelten Kontrolltieren entwickelt sich als Symptom der Infektion innerhalb von 2 Wochen bzw. 3 Wochen eine deutliche Vergrößerung von Milz und Leber. Die Behandlung erfolgt über 10 Tage bei intraperitonealer Applikation und über 16 Tage bei oraler Applikation der Testsubstanzen. Bei intraperitonealer Gabe der Testsubstanzen beginnt die Behandlung 48 Stunden nach der Infektion, bei peroraler Gabe der Testsubstanz 4 Tage vor der Infektion. Am 14. Tag nach Infektion werden die Tiere durch Luxation der Halswirbel getötet und geöffnet. Die Milz wird entnommen und gewogen. Als Meßparameter der therapeutischen Wirksamkeit wird das Milzgewicht der behandelten Tiere mit den der unbehandelten Infektionskontrolle in Relation gesetzt.
Für die orale Applikation werden die Prüfsubstanzen in Trinkwasser gelöst. Alle 24 Stunden werden die Trinkwasserbehälter mit jeweils 100 ml Inhalt gewechselt. Aus dem täglich ermittelten Verbrauch an Trinkwasser pro Versuchskollektiv wird die durchschnittliche Dosismenge errechnet, die einer Maus pro 24 Stunden appliziert wurde.
Während bei uninfizierten, ausgewachsenen Labormäusen (20 - 24 g Körpergewicht) die Milz weniger als 1 % des Körpergewichtes wiegt, erreicht bei infizierten Tieren die Milz am Ende des Versuchs etwa bis zu 10 % des Körpergewichtes.
Als Vergleichspräparate dienen Suramin (= 3,3′-Ureylen-bis-(8-(3-benzamido-4-methylbenzamido)-naphthalin-1,3,5-trisulfonsäure|) bei intraperitonealer Gabe bzw. Pentosanpolysulfat bei intraperitonealer und oraler Gabe.

`Cc1ccc(C(=O)Nc2ccc(S(=O)(=O)O)c3cc(S(=O)(=O)O)cc(S(=O)(=O)O)c23)cc1NC(=O)c1cccc(NC(=O)Nc2cccc(C(=O)Nc3cc(C(=O)Nc4ccc(S(=O)(=O)O)c5cc(S(=O)(=O)O)cc(S(=O)(=O)O)c45)ccc3C)c2)c1` [Suramin, 3,3′-Ureylen-bis-(8-(3-benzamido-4-methylbenzamido)-naphthalin-1,3,5-trisulfonsäure|)] was tested, and the “rel.Milzgewicht in % Körpergew.” value (10 x 0,1 mg/Maus, second series (Kontrolle 7,25)) was 5,68 % Körpergew, the “Anzahl überlebender Mäuse n” value (10 x 0,1 mg/Maus, second series (Kontrolle 10)) was 10 and the “rel.Milzgewicht in % Körpergew.” value (10 x 1,0 mg/Maus, first series (Kontrolle 6,41)) was 4,96 % Körpergew. The “Anzahl überlebender Mäuse n” value (10 x 1,0 mg/Maus, first series (Kontrolle 10)) was 10.
